According to ChEMBL document CHEMBL4382289, “Synthesis, Biological Evaluation and Structure-Activity Relationships of Diflapolin Analogues as Dual sEH/FLAP Inhibitors” (ACS Med Chem Lett, 2019):

Tests used:
[1] = molecular target: T1, Bifunctional epoxide hydrolase 2 (Homo sapiens, UniProt P34913); test: Inhibition of recombinant human sEH preincubated for 10 mins followed by PHOME substrate addition and measured after 60 mins by fluorescence-based assay
T1 sequence (P34913 whole entry): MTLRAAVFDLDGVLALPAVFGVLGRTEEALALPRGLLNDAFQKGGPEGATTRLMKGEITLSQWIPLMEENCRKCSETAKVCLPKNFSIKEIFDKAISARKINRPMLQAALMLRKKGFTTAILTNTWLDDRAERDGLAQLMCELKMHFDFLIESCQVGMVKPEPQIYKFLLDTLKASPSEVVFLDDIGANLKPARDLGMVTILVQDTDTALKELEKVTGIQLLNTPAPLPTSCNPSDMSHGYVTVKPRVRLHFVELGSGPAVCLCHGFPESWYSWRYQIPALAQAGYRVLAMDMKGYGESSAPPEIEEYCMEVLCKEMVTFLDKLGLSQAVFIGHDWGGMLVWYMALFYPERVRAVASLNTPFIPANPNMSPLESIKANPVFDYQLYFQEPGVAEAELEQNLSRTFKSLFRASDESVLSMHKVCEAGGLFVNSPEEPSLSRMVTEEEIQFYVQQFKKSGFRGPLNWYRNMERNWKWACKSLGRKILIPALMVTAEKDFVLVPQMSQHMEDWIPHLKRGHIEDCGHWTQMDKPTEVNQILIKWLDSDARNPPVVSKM

[2] = molecular target: T2, Arachidonate 5-lipoxygenase-activating protein (Homo sapiens, UniProt P20292); test: Inhibition of 5-LO in human neutrophils preincubated for 10 mins followed by Ca2+ ionophore A23187 addition and measured after 10 mins by RP-HPLC analysis
T2 sequence (P20292 whole entry): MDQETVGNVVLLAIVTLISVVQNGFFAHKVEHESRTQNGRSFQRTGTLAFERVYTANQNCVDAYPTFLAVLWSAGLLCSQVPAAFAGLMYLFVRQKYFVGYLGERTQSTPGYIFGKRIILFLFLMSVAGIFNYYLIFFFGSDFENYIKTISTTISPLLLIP

SMILES	IC50 [1] [nM]	IC50 [2] [nM]
Cc1cc(OCc2nc3ccccc3s2)ccc1NC(=O)Nc1ccc(Cl)c(Cl)c1	23	
Cc1cc(OCc2nc3ccccc3s2)ccc1NC(=O)Nc1ccccc1Cl	1500	830
O=C(Nc1ccc(Cl)cc1)Nc1ccc(OCc2nc3ccccc3s2)cc1	13.9	1010
O=C(Nc1ccc(OCc2nc3ccccc3s2)cc1)Nc1cc(Cl)cc(Cl)c1	15.2	90
Cc1cc(OCc2nc3ccccc3s2)ccc1NC(=O)Nc1cccc(Cl)c1	15.8	160
Cc1cc(OCc2nc3ccccc3s2)ccc1NC(=O)Nc1cc(Cl)cc(Cl)c1	20	80
Cc1cc(NC(=O)Nc2ccccc2)ccc1OCc1nc2ccccc2s1	6.5	2070
O=C(Nc1ccc(OCc2nc3ccccc3s2)cc1)Nc1cccc(Cl)c1	25.9	170
Cc1cc(NC(=O)Nc2ccc(Cl)cc2)ccc1OCc1nc2ccccc2s1	4.1	> 10000
O=C(Nc1ccc(OCc2nc3ccccc3s2)cc1)Nc1ccccc1Cl	279	360
Cc1cc(OCc2nc3ccccc3s2)ccc1NC(=O)Nc1ccccc1	61.9	730
Cc1cc(NC(=O)Nc2cccc(Cl)c2)ccc1OCc1nc2ccccc2s1	2	2090
O=C(Nc1ccc(OCc2nc3ccccc3s2)cc1)Nc1ccc(Cl)c(Cl)c1	10.3	570
O=C(Nc1ccccc1)Nc1ccc(OCc2nc3ccccc3s2)cc1	111	420

Further lines, results first:

IC50 [1] [nM]	IC50 [2] [nM]	SMILES
11.7	> 10000	O=C(Nc1ccc(CCc2nc3ccccc3s2)cc1)Nc1ccc(Cl)c(Cl)c1
0.6	2170	Cc1cc(NC(=O)Nc2ccc(Cl)c(Cl)c2)ccc1OCc1nc2ccccc2s1
35.1	680	Cc1cc(NC(=O)Nc2ccccc2Cl)ccc1OCc1nc2ccccc2s1
5.2	570	Cc1cc(OCc2nc3ccccc3s2)ccc1NC(=O)Nc1ccc(Cl)cc1
0.8	720	Cc1cc(NC(=O)Nc2cc(Cl)cc(Cl)c2)ccc1OCc1nc2ccccc2s1
25.2	1130	O=C(Nc1ccc(SCc2nc3ccccc3s2)cc1)Nc1ccc(Cl)c(Cl)c1
9.1	10800	O=C(Nc1ccc(/C=C/c2nc3ccccc3s2)cc1)Nc1ccc(Cl)c(Cl)c1
